Data: patent publication US20060069120A1, “Novel piperidine derivaties as modulators of chemokine receptor ccr5” (priority 2002, published 2006)

Biological target: recombinant human CCR5 receptor (Homo sapiens, UniProt P51681)
Experiment: MIP-1α radioligand binding assay (scintillation proximity)
Conditions: displacement of 0.1 nM iodinated MIP-1α; membranes of Chinese hamster ovary cells expressing recombinant human CCR5; average if tested more than once
Description: The ability of compounds to inhibit the binding of MIP-1α was assessed by an in vitro radioligand binding assay. Membranes were prepared from Chinese hamster ovary cells which expressed the recombinant human CCR5 receptor. These membranes were incubated with 0.1 nM iodinated MIP-1α, scintillation proximity beads and various concentrations of the compounds of the invention in 96-well plates. The amount of iodinated MIP-1α bound to the receptor was determined by scintillation counting. Competition curves were obtained for compounds and the concentration of compound which displaced 50% of bound iodinated MIP-1α was calculated (IC50).
In Table IV the results are presented as Pic50 values. A Pic50 value is the negative log (to base 10) of the IC50 result, so an IC50 of 1 μM (that is 1×10^−6M) gives a Pic50 of 6. If a compound was tested more than once then the data below is an average of the probative tests results.

Sequence of recombinant human CCR5 receptor (P51681 whole entry): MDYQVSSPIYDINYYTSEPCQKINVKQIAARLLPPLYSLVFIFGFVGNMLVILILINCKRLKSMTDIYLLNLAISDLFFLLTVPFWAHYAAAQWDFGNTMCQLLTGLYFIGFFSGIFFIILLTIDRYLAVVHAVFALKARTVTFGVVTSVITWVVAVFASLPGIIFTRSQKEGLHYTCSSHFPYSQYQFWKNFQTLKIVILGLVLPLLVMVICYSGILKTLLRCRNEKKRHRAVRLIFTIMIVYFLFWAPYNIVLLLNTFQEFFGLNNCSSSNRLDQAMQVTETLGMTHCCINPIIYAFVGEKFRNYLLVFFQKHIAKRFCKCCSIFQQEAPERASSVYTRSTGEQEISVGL

Structure (SMILES) | IC50 [nM]
CS(=O)(=O)N1CCC(C(CCN2CCC(CC(=O)Nc3ccc(F)cc3)CC2)c2ccccc2)CC1 (centres unmarked) [Table I Compound 6] | 5.62
CS(=O)(=O)c1ccc(NC(=O)CC2CCN(CCC(c3ccccc3)N3CCN(c4ccccc4)CC3)CC2)cc1 (centres unmarked) [Table I Compound 3] | 12
CS(=O)(=O)c1ccc(NC(=O)CC2CCN(CCC(c3ccccc3)C3CCN(C(=O)c4ccc(Cl)cc4)CC3)CC2)cc1 (centres unmarked) [Table I Compound 5] | 1.32

The remaining lines, values ahead:

IC50 [nM] | Structure (SMILES)
89.1 | CS(=O)(=O)c1ccc(CNC(=O)CCC2CCN(CCC(c3ccccc3)C3CCN(S(C)(=O)=O)CC3)CC2)cc1 (single isomer, unassigned) [Table V Compound 3]
0.871 | CS(=O)(=O)c1ccc(NC(=O)CC2CCN(CC[C@@H](c3ccccc3)c3ccc(S(C)(=O)=O)cc3)CC2)cc1 [Table IV Compound 1, (S) N-(4-methanesulphonylphenyl)-1-[3-phenyl-3-(4-methanesulphonylphenyl)-propyl]piperidin-4-yl acetamide]
